Measured values: paper PMC9266460, “KSK-74: Dual Histamine H3 and Sigma-2 Receptor Ligand with Anti-Obesity Potential” (International Journal of Molecular Sciences, 2022)

Experiments:
[1] = system: rats fed a palatable diet; assay: Model of excessive eating: body weight, calorie intake, fat pads; format: in vivo, female Wistar rats
Protocol: Experiments were performed on female Wistar rats with an initial body weight of 140–160 g. The animals were housed in plastic cages (2 rats per cage) at a constant room temperature of 22 ± 2 °C, with a 12:12 h light/dark cycle. Water and food were available ad libitum. The randomly established experimental groups consisted of 6 rats for pharmacological studies and 3 rats for pharmacokinetic studies. All experiments were conducted in accordance with the Guide to the Care and Use of Experimental Animals, and were approved by the Jagiellonian University in Krakow Local Ethics Committee for Experiments on Animals (Permission No: 185/2017, 220/2019 and 223A/2019).
Female rats were randomly divided into several groups (n = 6) and studied for 4 weeks. The groups were as follows: standard diet + vehicle, palatable diet + vehicle, palatable diet + KSK-60 (1 mg/kg), palatable diet + KSK-60 (10 mg/kg), palatable diet + KSK-74 (1 mg/kg), palatable diet + KSK-74 (10 mg/kg), palatable diet + phentermine (7 mg/kg).
The studies for the 1 mg/kg b.w. and 10 mg/kg b.w. doses were performed at different times, so the parameters studied were compared to the respective control groups.
Rats fed a palatable diet had access to a diet consisting of milk chocolate with nuts, cheese, salted peanuts, and 7% condensed milk, and simultaneously to a standard feed (Labofeed B, Morawski Manufacturer Feed, Poland) for 4 weeks. The water was available ad libitum. Animals had access to palatable products, but also to the standard feed. Most importantly, feeding was not in any way forced, as in other models where animals were fed only a high-fat diet, or temporarily deprived of food (binge eating models). In the case of our model, rats decided themselves when, what, and how much to eat. The weight was evaluated daily. Calorie intake was evaluated three times a week. A palatable diet contained 100 g of peanuts—612 kcal; 100 mL of condensed milk—131 kcal; 100 g of milk chocolate—529 kcal; and 100 g of cheese—325 kcal. The standard diet contained 100 g of feed—280 kcal. Standard diet (fats 8%, carbohydrates 67%, proteins 25%) contained 100 g feed—280 kcal.
The palatable control group (palatable diet + vehicle) received vehicle (1% Tween 80 i.p., daily, for 4 weeks), while palatable test groups were injected i.p. with KSK-60 (1 mg or 10 mg/kg i.p, daily, for 4 weeks), KSK-74 (1 mg/kg or 10 mg/kg i.p, daily, for 4 weeks), or phentermine (7 mg/kg i.p., daily, for 4 weeks), respectively.
On the 31st day, 20 min after i.p. administration of heparin (5000 units/rat) and thiopental (70 mg/kg b.w.), animals were sacrificed, and plasma as well as peritoneal fat pads were collected (food was stopped for 6 h prior to organ, tissue, and plasma collection) for further study.

[2] = system: rats fed a palatable diet; assay: Plasma triglyceride and corticosterone levels in the model of excessive eating; format: in vivo, female Wistar rats; settings: KSK 10 mg/kg, phentermine 7 mg/kg
Protocol: Blood was collected from the left carotid artery and then centrifuged at 600× g (15 min, 4 °C) to obtain plasma.
To determine plasma triglyceride levels, standard enzymatic and spectrophotometric tests (Cat. No 1-053-A150, Biomaxima S.A., Lublin, Poland) were used. The ELISA Kit (Item No. 501320, Cayman Chemical, Ann Arbor, MI, USA) was used to determine corticosterone levels in plasma.

adipose tissue = assay: Histological examination of adipose tissue (Masson's trichrome); format: in vivo, female Wistar rats; settings: palatable diet
Protocol: Adipose tissue samples were prepared for histology using Masson’s trichrome stain (Merck) by fixation in 4% formaldehyde, dehydration in graded alcohol, and embedded in paraffin. The tissue samples were then sectioned using a microtome of 5 μm thickness. Six random fields from each section were analyzed in a blinded manner with an Olympus BX41 light microscope (Olympus, Tokyo, Japan) at magnifications of ×20, ×40 and ×100, and digital images were captured with an Olympus UC90 color camera. The quantitation of the number of adipocytes was performed in eight fields/slide with ×100 objective using an image analysis system: CellSensDimension (Olympus, Tokyo, Japan). The numerical density of the adipocytes was obtained by counting the total number of adipocytes per high-power field ([…]), and then this number was converted to 0.1 mm^2. According to stereometric rules, adipocytes tangent to the left and top edges of the image field were not counted. A semi-quantitative scale was used to assess the inflammatory response in adipose tissue. The following were evaluated on a subjective scale: inflammatory cell infiltration between adipocytes (0—normal, 1—few cells, 2—local clusters, and 3—extensive infiltrates), perivascular infiltration of immune cells (0—normal, 1—few cells, and 2—ring of inflammatory cells), widening of the septum (0—normal and 1—widening), and capillary congestion (0—normal and 1—congestion). A sum calculated from independently assessed values was calculated for each animal as an index of inflammation.

[3] = system: peritoneal adipose tissue; assay: Leptin, resistin, IL-6 and MCP-1 levels in adipose tissue (ELISA); format: in vivo, female Wistar rats; settings: KSK 10 mg/kg i.p., phentermine 7 mg/kg
Protocol: The frozen peritoneal adipose tissue was weighed, and homogenates were prepared by homogenizing 1 g of tissue in 4 mL of 0.1 M phosphate buffer, pH 7.4, using the IKA-ULTRA-TURRAX T8 homogenizer. The adipose tissue homogenates were then used for biochemical assays.
To determine the levels of leptin, resistin, IL-6, and MCP-1 in adipose tissue, the standard ELISA Kit (Cat. No E0561Ra, Cat. No E0211Ra, Cat. No E0135Ra, Cat. No E0193Ra, Bioassay Technology Laboratory, Shanghai, China) was used. To determine the levels of protein, a standard spectrophotometric test (Cat. No 1-008-B210, Biomaxima S.A. Lublin, Poland) was used.

mice fed a high-fat diet = system: mice fed a high-fat diet; parameters: method as in PMID 15447739; settings: highest dose; cited from earlier work
[4] = parameters: method as in PMID 15447739; settings: cited from earlier work
H3R = biological target: T1, H3R (Homo sapiens, UniProt Q9Y5N1); assay: Affinity at the H3R (literature values); format: binding; settings: H3R Ki relative to sigma-2 Ki
T1 construct: the Aequoscreen line co-expresses apoaequorin

sigma-1 receptor = biological target: sigma-1 receptor; parameters: method as in PMID 34908391; settings: Figure 1; read-out: σ1R Ki; cited from earlier work
sigma-2 receptor = biological target: sigma-2 receptor; parameters: method as in PMID 34908391; settings: Figure 1; read-out: σ2R Ki; cited from earlier work
[5] = system: rats fed a palatable diet; settings: cited from earlier work; for inhibition of weight gain: model of excessive eating
induced obesity in mice = system: induced obesity in mice; parameters: method as in PMID 29802412; settings: i.p. 10 mg/kg b.w. for 14 days; cited from earlier work
[6] = system: obese animal after olanzapine treatment; parameters: method as in PMID 11985350, PMID 22695490; settings: cited from earlier work
obese adults = system: obese adults; parameters: method as in earlier work; settings: cited from earlier work

T1 sequence (Q9Y5N1 whole entry): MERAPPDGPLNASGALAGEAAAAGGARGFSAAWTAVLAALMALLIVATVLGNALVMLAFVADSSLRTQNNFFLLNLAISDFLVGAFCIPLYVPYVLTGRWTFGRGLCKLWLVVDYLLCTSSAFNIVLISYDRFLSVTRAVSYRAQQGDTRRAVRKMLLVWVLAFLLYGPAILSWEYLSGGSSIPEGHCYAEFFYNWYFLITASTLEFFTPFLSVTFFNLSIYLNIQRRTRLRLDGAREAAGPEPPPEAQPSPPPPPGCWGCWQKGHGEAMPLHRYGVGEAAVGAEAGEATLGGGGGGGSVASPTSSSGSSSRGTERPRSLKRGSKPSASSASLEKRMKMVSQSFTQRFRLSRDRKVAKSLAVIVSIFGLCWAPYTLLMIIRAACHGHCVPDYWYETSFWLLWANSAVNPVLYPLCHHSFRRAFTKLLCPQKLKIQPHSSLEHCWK

CC(C)(N)Cc1ccccc1 [phentermine, reference compound]
amount of peritoneal fat pads vs palatable diet + vehicle ([1]; KSK 10 mg/kg, phentermine 7 mg/kg, end of experiment): fewer peritoneal fat pads
calorie intake vs control group fed palatable feed ([1]; i.p. 28 days, KSK 10 mg/kg b.w., phentermine 7 mg/kg b.w.): did not significantly influence the amount of calories consumed
body weight gain vs palatable diet + vehicle ([1]; i.p. daily 4 weeks, KSK-60/KSK-74 10 mg/kg b.w., phentermine 7 mg/kg): gained less weight
plasma triglyceride levels vs palatable diet + vehicle [2]: lower plasma triglyceride levels
capillary congestion and crown-like structures in adipose tissue (adipose tissue; 7 mg/kg): marked capillary congestion and frequent appearance of crown-like structures
inflammatory infiltrates in adipose tissue (histological description) (adipose tissue; KSK 10 mg/kg, phentermine 7 mg/kg): slightly less inflammatory infiltrates
number of adipocytes per 0.1 mm^2 of cross-sectional area (adipose tissue; KSK 10 mg/kg, phentermine 7 mg/kg, means ± SD, n = 6): more similar to the results of the palatable diet + vehicle group
inflammatory index of the adipose tissue (adipose tissue; KSK 10 mg/kg, phentermine 7 mg/kg, standard diet + vehicle 0.5 ± 0.34): 4.16 ± 0.48
number of rats, Capillary Congestion grade 1-Congestion (adipose tissue; n = 6 per group): 6
number of rats, Inflammatory Cell Infiltration grade 1-Few Cells (adipose tissue; n = 6 per group): 4
number of rats, Inflammatory Cell Infiltration grade 2-Local Clusters (adipose tissue; n = 6 per group): 2
number of rats, Perivascular Infiltration grade 0-Normal (adipose tissue; n = 6 per group): 1
number of rats, Perivascular Infiltration grade 1-Few Cells (adipose tissue; n = 6 per group): 4
number of rats, Perivascular Infiltration grade 2-Ring of Cells (adipose tissue; n = 6 per group): 1
number of rats, Widening of the Septum grade 0-Normal (adipose tissue; n = 6 per group): 1
number of rats, Widening of the Septum grade 1-Widening (adipose tissue; n = 6 per group): 5
resistin levels in adipose tissue vs palatable diet + vehicle [3]: did not influence
leptin levels in adipose tissue ([3]; vs palatable diet + vehicle unless worded otherwise): did not influence

CN(C)[C@@H]1CCN(CCCOc2ccc(-c3ccc(C#N)cc3)cc2)C1 [Compound A-331440]
body weight (mice fed a high-fat diet): induced weight loss comparable to mice fed a low-fat diet
reason for exclusion from clinical trials [4]: genotoxicity

CC(=O)c1ccc(OCCCCCCCCN2CCN(c3ccncc3)CC2)cc1 [KSK-73]
affinity ratio H3/sigma-2 receptors (H3R): 0.68
Ki (sigma-1 receptor): 408 nM
Ki (sigma-2 receptor): 59.7 nM
inhibition of weight gain [5]: high efficacy in inhibiting weight gain

Clc1ccc(CCCOCCCN2CCCCC2)cc1 [Pitolisant]
body weight and metabolic disturbances (induced obesity in mice): positive influence on body weight, glucose tolerance, and lipid profile

CNCCc1ccccn1 [Betahistine, reference compound]
high-density lipoprotein (HDL) levels, long-term administration ([5]; rat model of excessive eating): increases high-density lipoprotein (HDL) levels
weight gain, long-term administration ([5]; rat model of excessive eating): slows weight gain
body weight [6]: induced significant weight loss
reduction of body weight and waist circumference compared with Orlistat (obese adults): did not show significant differences

CC(=O)c1ccc(OCCCCCCN2CCN(c3ccncc3)CC2)cc1 [KSK-59]
Ki (sigma-1 receptor): 37.8 nM
Ki (sigma-2 receptor): 151 nM
inhibition of weight gain [5]: high efficacy in inhibiting weight gain
